Columns and labels:
Type in all cases: cell-based
[1] = test system: HPEKp cells (human epidermal keratinocyte progenitors, pooled); experiment: alamarBlue proliferation assay with HPEKp cells; conditions: 120 h, relative to DMSO basis level 1.0, read-out: weighted arithmetic mean (AVEw) of normalized fluorescence intensity, activity range
Summary of the method: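 Pooled HPEKp cells in CnT-Prime medium, 2000 cells/well, were exposed to compound at 0.1% DMSO for 5 days. Growth was read by alamarBlue fluorescence (ex 560, em 590 nm) and normalized to the DMSO mean, with outliers excluded, as a weighted mean ± combined SD. Inhibition was judged at 10 μM, with mean+SD ≤0.9 as the criterion.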

[2] = test system: C2C12 cells (murine myoblast cells); experiment: alamarBlue proliferation assay with C2C12 cells; conditions: 40 μM, 3 days treatment, single assay (preliminary), relative to DMSO basis level 1.0
Description: Compounds were tested on C2C12 cells using the alamarBlue® proliferation assay in analogy to the above described method with seeding the cells at an initial number of 2000 cells per 96-well and a duration of treatment with compounds for 3 days.
In one embodiment, two compounds of the invention were found so far to inhibit the growth of C2C12 cells (murine myoblast cells) obtainable from the Deutsche Sammlung von Mikroorganismen and Zellkulturen GmbH (DSMZ) under the accession number ACC 565. C2C12 cells were cultivated according to the protocol of the provider in RPMI 1640 medium (Fisherscientific, #11554526) containing 10% fetal bovine serum (Fisherscientific, #15517589).
A compound is considered as a growth inhibitor of C2C12 cells, if—at a reference concentration of 40 μM—the equally weighted arithmetic mean (AVE) of the six normalized fluorescence intensity values after addition of the corresponding standard deviation amounts to 0.9 or lower, in particular to 0.8 or lower, 0.7 or lower, 0.6 or lower, 0.4 or lower, and 0.2 or lower, relative to the overall basis level of 1.0. The overall basis level was calculated as the equally weighted arithmetic mean (AVE) of the six normalized values from the DMSO control measurements in analogy to the calculations performed for the test-compounds. […]

[3] = test system: HeLa cells (human cervical adenocarcinoma cells); experiment: alamarBlue proliferation assay with HeLa cells; conditions: relative to DMSO basis level 1.0
Description: The antiproliferative activities of compounds falling under formula I, formula II, formula III, formula IV and formula V were investigated on cells or cell lines originating from a disorder of the myeloid cell compartment, the neuroendocrine system, the cervix, and the mucosal epithelium, as well as from the skin epithelium. To this end, HL-60 cells, TT cells, HeLa cells, CAL-27 cells and human primary epidermal keratinocytes (HPEK) were seeded into 96-well plates suitable for fluorescence assays (CORNING #3598) at following initial cell numbers: 1000 cells per well for HL-60; 9000 cells per well for TT; 2000 cells per well for HeLa, 2000 cells per well for CAL-27, 2000 cells per well for HPEK. […] The readout was taken with a multi-well plate-reader in the fluorescence mode with applying a filter for excitation at 560 nm (band width 10 nm) and for emission at 590 nm (band width 10 nm). […]
The assays were performed in duplicate or more replicates of independent single experiments each containing a six-fold replicate for every condition. For every individual plate, the measured fluorescence intensity values of the conditions with compound treatment were normalized against the corresponding equally weighted arithmetic mean of the fluorescence intensity values of the six DMSO treated control wells in order to obtain the relative values to a baseline level of 1.0. […]

SMILES | activity at 10 µM [1] [%] | equally weighted arithmetic mean (AVE) of six normalized fluorescence intensity values, activity range [2] | weighted arithmetic mean (AVEw) of normalized fluorescence intensity, activity range ([3]; 40 μM) | weighted arithmetic mean (AVEw) of normalized fluorescence intensity ([3]; control RES at 20 μM)
NC(=O)c1ccc(Oc2ccc(C3CC4CCC3C4)cc2)cc1 (racemic) [Compound 159, (±)-4-(4-(Bicyclo[2.2.1]heptan-2-yl)phenoxy)benzamide] | 0 to 20 |  |  | 
O=C(NO)c1ccc(Oc2ccc(C3CCCCC3)cc2)cc1 [Compound 182, 4-(4-cyclohexylphenoxy)-N-hydroxybenzamide] | 0 to 20 |  |  | 
CCC(C)(C)c1ccc(Oc2ccc(C(=O)NO)cn2)cc1 [Compound 273, N-hydroxy-6-(4-(tert-pentyl)phenoxy)nicotinamide] | 0 to 20 |  |  | 
O=C(NO)c1ccc(Oc2ccc(C3CC4CCC3CC4)cc2)nc1 (stereo not shown) [Compound 287, 6-(4-((1s,4s)-bicyclo[2.2.2]octan-2-yl)phenoxy)-N-hydroxynicotinamide] | 0 to 20 |  |  | 
CN(C)C(=O)c1ccc(Oc2ccc(C3CCCCC3)cc2)nc1 [Compound 334, 6-(4-cyclohexylphenoxy)-N,N-dimethylnicotinamide] | 60 to 70 |  |  | 
O=C(NO)c1cnc(Oc2ccc(C3CCCCC3)cc2)c(F)c1 [Compound 644, 6-(4-Cyclohexylphenoxy)-5-fluoro-N-hydroxynicotinamide] | 0 to 20 |  |  | 
Oc1ccc(C=Cc2cc(O)cc(O)c2)cc1 [RES, resveratrol, reference compound] | 40 | 0.3 ± 0.0 | 0.4 ± 0.0 | 0.9 ± 0.0
